Measured values from article PMC3388095, “Fluorophore Labeled Kinase Detects Ligands That Bind within the MAPK Insert of p38α Kinase” (PLoS ONE, 2012).
“And” between values parts separate entries of the source, which are not always exact repeats. Equal values may be shown once.

Columns and labels:
p38α MAPK insert = molecular target: T1, p38α MAPK insert (Homo sapiens, UniProt Q16539, C119S/C162S/S252C); experiment: FLiK direct binding assay, acrylodan-labeled p38α (S252C) MAPK insert / lipid binding site; conditions: binding to p38α MAPK insert; ratiometric acrylodan emission; each concentration in triplicate
T1 construct: His-tag with PreScission Protease cleavage site (N); made in house; host or cells: E. coli BL21(DE3) Codon+RIL
T1 sequence (Q16539 whole entry C119S/C162S/S252C): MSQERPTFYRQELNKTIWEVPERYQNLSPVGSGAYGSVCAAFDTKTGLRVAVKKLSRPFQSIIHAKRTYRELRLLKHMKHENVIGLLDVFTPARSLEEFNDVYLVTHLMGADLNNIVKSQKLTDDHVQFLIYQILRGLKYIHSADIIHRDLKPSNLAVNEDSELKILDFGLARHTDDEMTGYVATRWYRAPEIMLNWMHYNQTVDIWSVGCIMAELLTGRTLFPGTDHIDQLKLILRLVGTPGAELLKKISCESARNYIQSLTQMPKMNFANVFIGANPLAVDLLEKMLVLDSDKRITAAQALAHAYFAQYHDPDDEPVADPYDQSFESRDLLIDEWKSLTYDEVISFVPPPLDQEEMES
Procedure: The human p38α kinase construct containing the mutations required for specific labeling (C119S/C162S/S252C) as well as wild type p38α were cloned into a pOPINF vector and transformed as an N-terminal His-tag construct with a PreScission Protease cleavage site into BL21(DE3) Codon+RIL E. coli. Protein expression, purification, fluorophore labeling and verification of mono-labeling of the kinase were performed essentially as described previously. Labeling of the mutant p38α protein with thiol-reactive acrylodan was carried out by adding a 1.5∶1 molar excess of the fluorophore (dissolved in DMSO) to the purified protein in 50 mM Hepes Buffer (pH 7.0). The mixture was allowed to react in the dark overnight at 4°C. Unreacted acrylodan was subsequently removed by three cycles of buffer exchange into FLiK Measurement Buffer (50 mM Hepes Buffer, pH 7.4+200 mM NaCl) using a 10k-MWCO Centricon. The protein was concentrated to ∼200 μM, aliquoted and frozen at −80°C. Mono-labeling of the protein was verified by ESI-MS as described previously, [24].
Characterization of the fluorescence response of MAP insert-labeled p38α was carried out as described previously for p38α labeled on the activation loop. […] Briefly, a polystyrene cuvette containing a suspension of 50 nM acrylodan-labeled p38α in FLiK Buffer was excited at 386 nm and emission spectra were measured in the absence and presence of increasing concentrations of 1b. The compound was dissolved in 100% DMSO and delivered in sequential small doses to a single sample. […] Ratiometric fluorescence readouts are advantageous in that they provide an internal correction for small errors in sample volume which can affect signal intensity. All measurements of the cuvettes were made with a JASCO FP-6500 fluorescence spectrophotometer (JASCO GmbH, Germany).
The assay was adapted to high-throughput screening formats which enabled KD values to be determined in black small volume assay plates. Briefly, a dilution series of each compound was first prepared in 100% DMSO at 20X the desired final concentration and 1 μL was transferred to the assay plate. Compounds were then mixed with 19 µL of FLiK Buffer (supplemented with 0.01% Triton X-100) containing acrylodan-labeled p38α (100 nM). The final concentration of compound in the dilution series ranged from 0–50 μM (5% v/v DMSO final). Plates were covered with an adhesive aluminum foil and incubated for 30 min at RT prior to measurement of emission intensities at 470 and 520 nm using a Tecan Safire^2 plate reader. […] Binding curves were plotted using the ratio R = I520/I470 to determine the KD.

p38α = experiment: glycine-rich loop FLiK binding assay (library screen); conditions: initial library screen

Structure (SMILES): Nc1ccc2c(NC3CC3)nc(-c3ccccc3)nc2c1 [1b, N^4-Cyclopropyl-2-phenyl-4,7-quinazolinediamine]
- Kd (p38α MAPK insert): ~2.4 µM and 2.4 µM
- binding detected by glycine-rich loop FLiK assay (p38α): weakly detected
